“And” between values parts separate entries of the source, which are not always exact repeats. Equal entries are not always repeated. Structures can show the parent of a compound that is named as a salt. Where two headings read alike, the source gives them in different places.

For series [1] the following is noted: hemin-to-peptide ratio of 1:3; no lipid; cited from earlier work.
For series [2] the following is noted: cited from earlier work. As for the experimental part: Based on CD spectral features, apparent dissociation constants in the 20–50 μM range could be estimated for the peptide-hemin interactions as a single dose of a molar equivalent of hemin (25 μM) was enough here to reach close-to-saturation levels for several peptides (Fig. 1). […] It should be noted that classical considerations on affinity determination might fail for the ...

Another series has as its system erythrocytes. The conditions noted are these: cited from earlier work. An excerpt:
Based on our results on model membranes, and in vitro assays on the selected cell line above, further activity alterations of the AMPs upon complex formation with hemin may be speculated. First of all, AMP–heme interaction could result in reduced antimicrobial activity by lowering the active peptide concentration. This can be achieved either by sequestering the free available peptide fraction by heme not allowing membrane interaction or by precluding formation of the active membrane-bound conformation of the peptides in the hemin-complexed membrane-associated form. A further interesting point ...

Series [3] in a line: Intrinsic Trp fluorescence quenching by hemin. It counts as binding. To be noted: PBS, 25 °C. As for the experimental part: Spectra were collected using a Jobin Yvon Fluoromax-3 spectrofluorometer at 25 °C in PBS. Spectra were recorded three times, averaged, and corrected by subtracting an appropriate blank. The Trp fluorophore was excited at 295 nm, and emission was monitored from 305 to 400 nm. 2 µM peptide was titrated with subsequent addition of hemin (up to 20 μM) in the presence and absence of liposomes (100 µM total lipid).

Series [4] in a line: Dynamic light scattering of peptide-hemin assemblies. It counts as physicochemical. The conditions noted are these: three-component systems: 25 µM peptide, 75 µM hemin, 635 µM lipid (PC or PC/PG), PBS, various mixing order. As for the experimental part:
Particle size and size distribution of the peptide-small molecule mixtures were measured at 20 °C using a W130i dynamic light scattering device (DLS, Avid Nano Ltd., High Wycombe, UK) with a diode laser (660 nm) and a photodiode detector. Low volume disposable cuvettes with 1 cm path-length were used (UVette, Eppendorf Austria GmbH). Samples prepared for CD experiments were measured after completing the titration. The time-dependent autocorrelation function was measured for 10 s, repeated 10 times.

For series [5], the system named is EBC-1 cells. The experiment in a line: Cytostasis (viability) assay, Alamar Blue. To be noted: for dead cells: alone; for live cell %: mean ± SEM. It counts as cell-based, human. As for the experimental part:
EBC-1 (squamous cell carcinoma, metastatic, origin: bronchi, JCRB No: JCRB0820[85],[86], originally purchased from Thermo Fisher Scientific and provided by the National Institute of Oncology, Budapest, Hungary) cells were maintained as an adherent culture in DMEM medium (Lonza) containing 10% FBS (Gibco) and supplemented with 2 mM of L-glutamine (Lonza), 1% non-essential amino acids (Gibco), 1 mM sodium pyruvate (Sigma-Aldrich), 1% penicillin–streptomycin (10,000 units penicillin and 10 mg streptomycin/ml, Gibco), at 37 °C in a humidified atmosphere containing 5% CO2.
For testing cytostatic effects, 3500 cells per well were plated in 96-well flat bottom tissue culture plates (Sarstedt, Nümbrecht, Germany) in complete DMEM medium. LL-37 stock solution was prepared in serum-free medium (SFM) at 200 µM, while heme compounds were dissolved first in 10 mM NaOH at 3 mM, sterile filtered, and diluted tenfold in SFM. Cells were incubated with the peptide, small molecules, or peptide-small molecule mixtures for 24 h. Then cells were washed three times with SFM and cultured further for 72 h in complete medium. Cytostatic activity was determined using the Alamar Blue assay, where 20 µl Alamar Blue (resazurin sodium salt, Sigma-Aldrich) solution (0.15 mg/ml, dissolved in PBS, pH 7.4) was added to each well. Following a 3 h incubation, fluorescence (λEx = 530/30 and λEm = 610/10 nm) was read using a Synergy H4 multi-mode microplate reader (BioTek, Winooski, VT, USA). Live cell percentage of treated cells was calculated compared to control cells treated with medium only. All measurements were performed in triplicates, and live cell % values together with SEM are presented.
Background: Alamar Blue is a resazurin reagent that responds to reducing activity.

Series [6] deals with EBC-1 cells. Description: Cell morphology by bright field microscopy. The conditions noted are these: 3 h exposure; for cell morphology: 33 µM. The format is cell-based, human. On the procedure: To visualize cell morphology changes, microscopic images of EBC-1 cells were captured. EBC-1 cells were plated in a 96-well flat bottom tissue culture plate and treated with peptide, heme compounds, and their mixtures as described in the above section. Microscopic images of the adherent cells were taken after the first 3 h of the treatment using an Olympus CKX41 microscope (Hamburg, Germany, objective: 20×).

melittin: in series [1], the “remaining Trp fluorescence intensity on hemin quenching” value is reported as 5–10%. For the same compound, the Kd in series [2] (read-out: binding strength, interaction with hemin) is 60 to 120 µM. The hemolytic effects entry in the series with erythrocytes was “strong”. In addition, the “Trp fluorescence quenching by hemin” value in series [3] (2 µM peptide with PC liposomes) is listed as “complete signal loss”.
CM15: in the series with erythrocytes, the hemolytic effects result is on record as “moderate”. Moreover, the “average particle size of aggregates (DLS)” value in series [4] is given as at most 1 µm. Besides, the “Trp fluorescence quenching by hemin” value in series [3] (2 µM peptide, 10 µM hemin, no lipid) is given as “total signal loss”.
On to `C=CC1=C(C)/C(=C/C2=NC(=C\c3[nH]c(/C=C4\NC(=O)C(C)=C4C=C)c(C)c3CCC(=O)O)/C(CCC(=O)O)=C2C)NC1=O` [biliverdin, biliverdin HCl], for which the toxicity entry in the series on EBC-1 cells [5] (EBC-1, up to 100 µM (Fig. S12)) is given as “No significant toxicity”. In addition, the cytostatic effect entry with EBC-1 cells [5] (EBC-1, up to 100 µM, 24 h treatment + 72 h culture, Alamar Blue) was “No cytostatic effect”. The cell morphology entry with EBC-1 cells [6] was “Non-damaged cells”.
As to hemin, the “concentration with dose-dependent cytostatic effect” value in the series with EBC-1 cells [5] (EBC-1 (Fig. S12)) is at least 33 µM. The dead cells was ~ 20% in the series on EBC-1 cells [5] (EBC-1, 33 µM, 24 h treatment + 72 h culture, Alamar Blue) and about 60% in the series on EBC-1 cells [5] (EBC-1, 100 µM, 24 h treatment + 72 h culture, Alamar Blue). In the series on EBC-1 cells [5] (EBC-1, compound alone, 24 h treatment + 72 h culture, Alamar Blue), the “concentration at which cytostatic” value is over 10 µM. Also, the cell morphology entry in the series on EBC-1 cells [6] is on record as “Non-damaged cells”.
Consider “LLGDFFRKSKEKIGKEFKRIVQRIKDFLRNLVPRTES [LL-37, the only human cathelicidin, a host defense peptide]”, for which the Kd in series [2] (calculated, read-out: Kd, interaction with hemin) was 20 to 36 µM. For the same compound, the live cell percentage in the series with EBC-1 cells [5] (EBC-1, 17 µM LL-37 administered together with hemin or biliverdin) is recorded as 25–35%. The live cell % with EBC-1 cells [5] (EBC-1, 17 µM LL-37 alone, relative to untreated control, n = 3) is 4.7 ± 1.3% and ~ 5%; with EBC-1 cells [5] (EBC-1, 17 µM LL-37 with biliverdin at 1:3 ratio, n = 3), 34 ± 6%; in the series with EBC-1 cells [5] (EBC-1, 17 µM LL-37 with hemin at 1:1 peptide to hemin ratio, n = 3), 36 ± 12%; in the series with EBC-1 cells [5] (EBC-1, 17 µM LL-37 with hemin at 1:3 ratio, n = 3), 23 ± 6%. Moreover, the cells killed in the series on EBC-1 cells [5] (EBC-1, LL-37 at 17 µM, 24 h treatment + 72 h culture, Alamar Blue, n = 3) is listed as ~ 90%; with EBC-1 cells [5] (EBC-1, LL-37 at 50 µM, 24 h treatment + 72 h culture, Alamar Blue, n = 3) it was “almost all cells”. For the same compound, the cytostatic effect entry in the series on EBC-1 cells [5] (EBC-1, LL-37 at ~5 µM, 24 h treatment + 72 h culture, Alamar Blue, n = 3) is “no significant effect”. Also, the cell morphology alterations result in the series with EBC-1 cells [6] (17 µM LL-37) was “shrinkage, and membrane defects”.

The values are drawn from publication PMC8443738, “Interplay between membrane active host defense peptides and heme modulates their assemblies and in vitro activity” (Scientific Reports, 2021).
